Experimental data published in the supplement of paper PMC10307832.

Key:
Test in all cases: relative viability (nuclei count vs DMSO), 5 days (fraction); higher = more cells survive
[1] = compound: Cc1ccc(-n2nc(C(C)(C)C)cc2NC(=O)Nc2ccc(OCCN3CCOCC3)c3ccccc23)cc1 [Doramapimod] + C[C@@H](Oc1cc(-c2cnn(C3CCNCC3)c2)cnc1N)c1c(Cl)ccc(F)c1Cl [Crizotinib] (partner 1 µM)
Method in brief: (§1)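 The day after seeding in 1536-well plates, lung cancer cell lines were treated by pin tool with a single drug, or with a fixed anchor-drug dose together with five library-drug doses (not always all listed) in √10 steps. After 5 days, a combined fix-and-stain solution (final 0.05% Triton X-100, 1% formaldehyde, 1 ug/ml Hoechst) was added. Nuclei counted on 4× images gave relative viability as treated counts over vehicle counts, reported as the median of duplicate plates.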

[2] = compound: Cn1c(Nc2ccc(C(F)(F)F)cc2)nc2cc(Oc3ccnc(-c4ncc(C(F)(F)F)[nH]4)c3)ccc21 [RAF265] + Cc1nc(NC(=O)N2CCC[C@H]2C(N)=O)sc1-c1ccnc(C(C)(C)C(F)(F)F)c1 [Alpelisib] (partner 2 µM)
Method in brief: as §1

[3] = compound: Cc1ccc(-n2nc(C(C)(C)C)cc2NC(=O)Nc2ccc(OCCN3CCOCC3)c3ccccc23)cc1 [Doramapimod] + Cc1nc(NC(=O)N2CCC[C@H]2C(N)=O)sc1-c1ccnc(C(C)(C)C(F)(F)F)c1 [Alpelisib] (partner 2 µM)
Method in brief: as §1

[4] = compound: C1=CC=C2C(=C1)C=CC(=C2SSC3=C(C=CC4=CC=CC=C43)O)O [IPA-3] + Cc1nc(NC(=O)N2CCC[C@H]2C(N)=O)sc1-c1ccnc(C(C)(C)C(F)(F)F)c1 [Alpelisib] (partner 2 µM)
Method in brief: as §1

Cell Line	relative viability ([1]; first compound 0.02 µM)	relative viability ([1]; first compound 0.06325 µM)	relative viability ([1]; first compound 0.2 µM)	relative viability ([1]; first compound 0.6325 µM)	relative viability ([1]; first compound 2 µM)	relative viability ([2]; first compound 0.01 µM)	relative viability ([2]; first compound 0.03162 µM)	relative viability ([2]; first compound 0.1 µM)	relative viability ([2]; first compound 0.3162 µM)	relative viability ([2]; first compound 1 µM)	relative viability ([3]; first compound 0.02 µM)	relative viability ([3]; first compound 0.06325 µM)	relative viability ([3]; first compound 0.2 µM)	relative viability ([3]; first compound 0.6325 µM)	relative viability ([3]; first compound 2 µM)	relative viability ([4]; first compound 0.2 µM)	relative viability ([4]; first compound 0.6325 µM)	relative viability ([4]; first compound 2 µM)	relative viability ([4]; first compound 6.325 µM)	relative viability ([4]; first compound 20 µM)
HCC-44	0.884	0.856	0.755	0.771	0.772	0.743	0.699	0.882	0.75	0.695	0.811	0.764	0.756	0.76	0.701	0.788	0.715	0.843	0.683	0.775
HCC-78	0.356	0.364	0.336	0.399	0.358	0.33	0.358	0.432	0.291	0.249	0.288	0.327	0.325	0.343	0.285	0.327	0.406	0.244	0.347	0.51
HCC-366	0.612	0.513	0.487	0.451	0.398	0.404	0.432	0.539	0.579	0.124	0.403	0.325	0.38	0.39	0.299	0.499	0.425	0.432	0.477	0.333
HCC-827	0.95	0.869	0.949	0.841	0.666	0.984	1.02	1.01		0.735	0.931	1.01	0.97	1.01	0.612	0.972	0.961	0.971	0.978	1.01
HOP-62	0.888	1.02	1.12	0.597	0.968	0.966		0.948	1.07	0.58	0.898	1.14	0.896	0.975	0.874	1.08	0.926	0.952	0.945	0.93
IA-LM	0.856		0.699	0.795	0.792	0.774		0.587	0.752	0.44	0.658	0.728	0.693	0.73	0.669	0.884	0.735	0.731	0.703	0.738
LC-2-ad	0.531	0.451	0.448	0.435	0.385	0.771	0.727	0.724	0.35	0.202	0.943	0.995	0.884	0.888	0.835	0.927	0.808	0.897	0.82	0.941
LCLC-97TM1	0.326	0.357	0.31	0.338	0.209	0.274	0.194	0.2	0.144	0.125	0.205	0.221	0.275	0.266	0.212	0.281	0.299	0.241	0.232	0.246
LCLC-103H	1.05	1.06	1.08	1.06	0.944	0.862	1.02	0.854	0.745	0.461	0.998	0.917	0.961	0.966	0.973	0.926	0.806	0.81	0.943	1.02
LK-2	0.246	0.266	0.207	0.207	0.205	1.07	1.08	1.18	0.655	0.778	1.03	0.906	0.751	0.737	0.76	1.13	1.02	1.19	1.19	1.22
LOU-NH91	0.729	0.724	0.749	0.796	0.61	0.747	0.667	0.739	0.557	0.495	0.794	0.728	0.728	0.893	0.574	0.717	0.702	0.723	0.674	0.914
LU99A	0.562	0.541	0.533	0.585	0.442	0.474	0.384	0.347	0.252	0.21	0.523	0.484	0.486	0.484	0.441	0.551	0.451	0.512	0.531	0.528
LXF-289	0.839	0.91	0.799	0.793	0.757	1.06	0.965	1	0.79	0.75	1.03	0.992	1.01	1.02	0.956	1.08	0.978	1.03	1.02	1.13
NCI-H23	0.685	0.435	0.488	0.539	0.595	0.738	0.601	0.643	0.416	0.222	0.711	0.64	0.753	0.867	0.59	0.694	0.577	0.73	0.645	0.805
NCI-H1395						1.07	0.993	1.04	0.835	0.792	1.07	1.08	0.93	1.14	0.938	1.06	1.29	1.04	1.26	1.01
NCI-H1650	0.969	1.02	1.13	1.04	1.02															
NCI-H1793						0.709	0.914	0.66	0.477	0.293	0.788	0.595	0.786	0.643	0.595	0.786	0.677	0.757	0.739	0.785
